{"source": "paper PMC10712727", "about": "“Safety, Tolerability, and Pharmacokinetics of Senaparib, a Novel PARP1/2 Inhibitor, in Chinese Patients With Advanced Solid Tumors: A Phase I Trial” (The Oncologist, 2023)", "key": {"[1]": {"tested_on": "patients with advanced solid tumors", "test": "Dose-limiting toxicities, MTD and RP2D determination (modified 3 + 3 dose escalation)", "assay_type": "in vivo", "experimental": "Dose escalation was conducted using a modified Fibonacci 3 + 3 method (Supplementary Fig. S1).[17] Patients were administered oral senaparib from a planned starting dose of 2 mg once daily (QD), with preliminary dose escalation to 120 mg via nine dose groups, in order of their entry into the study. At a given dose level, each patient received a single dose of senaparib followed by a 7-day washout period. They then entered a continuous dosing period to confirm the safety and PK profile, in which they received senaparib QD from day 1 to day 21 of each 3-week cycle. Progression to the next higher dose required approval from the Data Safety Monitoring Committee (DSMC) upon review of the safety and PK data of the previous dose. […]\nDLTs were predefined toxicities (Supplementary Table S2) recorded over the 7 days following the single-dose administration of senaparib and during the first treatment cycle (day 1-day 21) for each dose group in the dose-escalation period only. […] Plasma concentrations of senaparib were determined using high-performance liquid chromatography-tandem mass spectrometry. Tumor response was assessed every 6 weeks per RECIST v1.1,[16] recording objective response rate (ORR), disease control rate (DCR), duration of response (DOR), and progression-free survival (PFS) by dose level for all patients and for those harboring BRCA^mut+ tumors."}, "[2]": {"test": "Plasma pharmacokinetics in continuous dosing period, cycle 1 day 15 steady state (HPLC-MS/MS)", "assay_type": "in vivo, human", "details": "dose range of 2-120 mg"}}, "note": "Entries after “also recorded” stand apart in the source; their conditions may differ.", "data": [{"smiles": "O=C(c1cc(Cn2c(=O)[nH]c(=O)c3c(F)cccc32)ccc1F)N1CCN(c2ncccn2)CC1", "note": "[Senaparib]", "values": [{"measurement": "Dose-limiting toxicities (DLTs)", "setting": "[1]; DLT observation period, dose escalation, 2-120 mg QD and 50 mg BID", "result": "No dose-limiting toxicities were observed; also recorded: No DLTs were observed"}, {"measurement": "Maximum tolerated dose (MTD)", "setting": "[1]; doses up to 120 mg QD", "result": "not reached"}, {"measurement": "Dose linearity", "setting": "[2]", "result": "Dose linearity was not observed"}]}]}
